System: Macrophages (RAW 264.7)
Assay: Macrophage polarization on the substrate with inhibitors of ROCK, myosin II or actin polymerization
Assay type: cell-based
Conditions: 50 μM Y27632, 10 blebbistatin, 2 μg/mL cytochalasin D; for M1 polarization suppression of macrophages (CD68): M1 medium, 36 hours, bimodal switching "ON" state; for stimulation of robust adhesion (cell area, elongation factor) and expression of M2 polarization (Arg-1 expression): M2 medium, inhibitor treated
Protocol: M1 medium used for assessment of the phenotypic polarization of macrophages was prepared by using a basal medium with 10 ng/mL each of lipopolysaccharide (LPS) and recombinant interferon-gamma (IFN-γ). M2 medium was prepared by using a basal medium with 20 ng/mL each of interleukin-4 (IL4) and interleukin-13 (IL-13). The adhesion-assisted M2 phenotypic polarization of the macrophages was assessed with inhibitors of ROCK (50 μM Y27632), myosin II (10 blebbistatin), or actin polymerization (2 μg/mL of cytochalasin D).
An upper part of FIG. 19 is a confocal immunofluorescent image of CD68, F-actin, and nuclei in macrophages cultured in an M1 polarization medium with and without an inhibitor for ROCK (Y27632), myosin II (blebbistatin), or actin polymerization (cytochalasin D) for 36 hours against and a graph illustrating a cell area, a cell elongation factor, and CD68 fluorescence intensity calculated based on a confocal immunofluorescent experiment result, and a lower part of FIG. 19 is a confocal immunofluorescent image of Arg-1, and F-actin, and nuclei in macrophages cultured in an M2 polarization medium with and without an inhibitor for ROCK (Y27632), myosin II (blebbistatin), or actin polymerization (cytochalasin D) and a graph illustrating a cell area, a cell elongation factor, and Arg-1 fluorescence intensity calculated based on the confocal immunofluorescent experiment result, and a scale bar represents 20 μm.

SMILES | M1 polarization suppression of macrophages (CD68) | stimulation of robust adhesion (cell area, elongation factor) and expression of M2 polarization (Arg-1 expression)
C[C@@H](N)[C@H]1CC[C@H](C(=O)Nc2ccncc2)CC1 [Example Y27632, Y27632] | continuously hindered | hindered
C=C1[C@@H](C)[C@H]2[C@H](Cc3ccccc3)NC(=O)[C@]23[C@H](OC(C)=O)/C=C/[C@@](C)(O)C(=O)[C@@H](C)C/C=C/[C@H]3[C@@H]1O [cytochalasin D] | continuously hindered | hindered
Cc1ccc2c(c1)C(=O)C1(O)CCN(c3ccccc3)C1=N2 (stereo not drawn) [blebbistatin] | continuously hindered | hindered

— patent US12161762B2, “Nanohelix-substrate complex for controlling macrophage behavior, preparation method thereof, and method of controlling adhesion and polarization of macrophage by using the same” (Korea University Research and Business Foundation, priority 2020, dated 2024)
